# Laboratory results reported in US10583387B2, “Guanidine compounds for carbon dioxide capture” (UT-Battelle, LLC, priority 2017, dated 2020).
# Values joined by “and” are separate entries in the source; they are usually repeats but may differ in a detail not shown here. Identical values can stand only once.
# How the values were obtained:
# [1] = cited from earlier work
# [2] = Differential scanning calorimetry (DSC), enthalpy of CO2 release; assay type: physicochemical
# Text: In order to determine the enthalpy of CO2 release from PyBIGH2(CO3)(H2O)4, differential scanning calorimetry (DSC) was employed. DSC is a common technique used in thermal analysis of solids. […] Unfortunately, the extensive overlap between the peaks prevented a determination of the heats associated with each thermal event. Instead, all the peaks were integrated together to obtain the overall enthalpy of desorption for PyBIGH2(CO3)(H2O)4, which amounts to 223±4 kJ/mol. While the overall reaction is highly endothermic, it should be taken into account that, for each CO2 molecule released from PyBIGH2(CO3)(H2O)4, there are four molecules of hydration that are desorbed (plus a fifth water molecule that is a bi-product of the carbonate decomposition).
# In order to determine the fraction of the reaction enthalpy corresponding to the CO2 release from the carbonate, anhydrous PyBIGH2(CO3) was prepared by overnight vacuum pumping of PyBIGH2(CO3)(H2O)4 at 30° C. […] The difference between the measured endotherms of PyBIGH2(CO3)(H2O)4 and PyBIGH2(CO3), of 148 kJ/mol, can be assigned to dehydration of the carbonate salt. This corresponds to an average of 37 kJ/mol per water of hydration, which is close to the enthalpy of vaporization for liquid water, of 40.65 kJ/mol. While a large fraction of the heat required to release the CO2 is spent on water evaporation, part of the waste heat could be recovered by process modifications that involve water condensation steps in which the resulting heat is collected and re-used via heat exchangers. Alternatively, vacuum-drying operations that typically require less energy than heat drying can be employed for dehydration of PyBIGH2(CO3)(H2O)4 prior to CO2 release. The use of renewable sources of energy, such as concentrated solar power, is also herein being considered to make the overall DAC process energy sustainable.
# [3] = cited from earlier work; for reaction rate of CO2 with sorbent: 25° C.
# [4] = Thermogravimetric analysis (TGA-MS) and oven heating of the carbonate crystals; assay type: physicochemical
# Text: Thermogravimetric analysis coupled with mass spectrometry (TGA-MS) provided a more quantitative picture of the decomposition process.
# [5] = Reaction enthalpies of elementary steps in DAC with PyBIG (van't Hoff analyses); assay type: physicochemical; conditions: for ΔH, PyBIGH2(CO3)(H2O)4 crystallization: equation 6
# Text: It is instructive to compare the thermodynamics of the CO2 absorption by PyBIG with those of other sorbents used in DAC. For example, amine sorbents have absorption enthalpies in the range of 60-80 kJ/mol. […] Thus, the actual CO2 ‘binding’ by PyBIG, corresponding to equations 3-5 combined, has an enthalpy of −109.8 kJ/mol. This is essentially the same as the enthalpy of CO2 absorption by aqueous NaOH. The crystallization step (equation 6) then adds −47 kJ/mol, to make the overall absorption process a combined −156 kJ/mol, which is about twice as exothermic compared to the CO2 absorption by a typical amine sorbent. However, dissolution of PyBIG (equation 1), which is endothermic (+42.5 kJ/mol) and essentially offsets the exothermic crystallization in step 6, and proton transfer from water to the guanidine groups (equation 2), which is also endothermic (+43.6), brings the overall enthalpy for CO2 capture by PyBIG (equation 7) to −70.7 kJ/mol.
# [6] = CO2 release and PyBIG regeneration by solar oven heating; assay type: physicochemical
# Method: The CO2 release from the PyBIGH2(CO3)(H2O)4 crystals was conducted by solar heating with a solar oven. The oven consists of a vacuum-insulated borosilicate tube placed in the focal point of two adjustable parabolic reflectors. The temperature inside the tube was monitored with a thermocouple. The PyBIGH2(CO3)(H2O)4 samples 36.4-45.0 mg, 0.095-0.118 mmol) were loaded in 1 mL glass vials, which were placed inside the oven tube. The solar oven was then placed in the full sun and oriented to capture the maximum amount of sunlight. The temperature was ramped to the targeted values of 120° C., 130° C., 140° C., 150° C., or 160° C. as fast as possible (typically within 3 to 10 minutes), then held within ±2° C. by intermittently moving the oven out of the sun, or/and closing the reflectors. The samples were subsequently removed from the tube, allowed to cool to room temperature, and weighed to determine their mass loss. The resulting yellow solids were analyzed by FTIR to confirm the disappearance of the carbonate and water peaks. The solar regeneration experiments were repeated three times at each temperature, and the average values and standard deviations calculated.
# However, considering that this transformation is highly endothermic, the possibility of using concentrated solar power to render the process more energy sustainable was explored. For the initial small-scale proof of concept, a solar oven was used to heat solid PyBIGH2(CO3)(H2O)4 samples (˜38 mg, 0.1 mmol) at five different temperatures ranging between 120 and 160° C. FTIR analyses corroborated the release of CO2, most evidently noticeable by the disappearance of the strong peak at 1361 cm^−1 corresponding to the stretching mode of the carbonate anion.
# [7] = Aqueous solubility and solubility product (variable-temperature solubility measurements); conditions: saturated solution (~10 mM)
# [8] = Accelerated aging of PyBIG (thermal stability); assay type: physicochemical
# physchem = conditions: pH 10, water, thermodynamic from solid
# [9] = Equilibrium constant for the amino acid regeneration reaction (equation 11); assay type: physicochemical; conditions: glycine sorbent, ideal conditions
# Text: In addition to the enthalpies of CO2 absorption and release, another important thermodynamic parameter is the equilibrium constant for the amino acid regeneration reaction (equation 10), which defines the efficiency limit for sorbent regeneration.
# [10] = pKa by potentiometric titration; assay type: physicochemical; conditions: 25° C., read-out: pKa of the two guanidinium groups
# [11] = liquid; cited from earlier work
smiles,measurement,setting,value
"O=C=O [CO2, carbon dioxide]","ΔH, CO2 dissolution",[1]; equation 3,-4.64 kcal/mol
N=C(N)NN=Cc1cccc(C=NNC(=N)N)n1.O=C(O)O [PyBIGH2(CO3)],enthalpy of the CO2 release (DSC),[2]; anhydrous carbonate salt,17.9 ± 1.4 kcal/mol
CNCC(=O)O [sarcosine],reaction rate of CO2 with sorbent,[3],ca. 18.6 kM/s
N=C(N)NN=Cc1cccc(C=NNC(=N)N)n1.O.O.O.O.O=C(O)O [PyBIGH2(CO3)(H2O)4],"decomposition completion, isothermal TGA","[4]; 80° C., after 300 minutes",77%
same,"time to complete loss of carbon dioxide and water, isothermal TGA",[4]; 100° C.,150 min
same,"time to complete loss of carbon dioxide and water, isothermal TGA",[4]; 120° C.,60 min
same,"mass loss, temperature-ramped TGA",[4]; between 65 and 140° C.,35.2%
same,mass loss of crystals heated in the oven,[4]; one hour at 120° C.,34.3%
same,"ΔH, PyBIGH2(CO3)(H2O)4 crystallization",[5],-11.2 kcal/mol
same,Weight loss,"[6]; 120 ° C., 30 min",32.3 ± 0.8%
same,Weight loss,"[6]; 130 ° C., 15 min",32.3 ± 0.8%
same,Weight loss,"[6]; 140 ° C., 10 min",33.2 ± 0.8%
same,Weight loss,"[6]; 150 ° C., 5 min",32.5 ± 0.8%
same,Weight loss,"[6]; 160 ° C., 2 min",33.8 ± 0.3%
same,average enthalpy per water of hydration,[2],8.84 kcal/mol
same,overall enthalpy of desorption (DSC),[2]; all peaks between 80 and 140° C. integrated,53.3 ± 0.96 kcal/mol
same,enthalpy of dehydration of the carbonate salt,[2]; difference between endotherms of hydrated and anhydrous salt,35.4 kcal/mol
"O=C(O)O [CO3^2−, carbonate]","ΔH, CO3^2− formation",[1]; equation 5,-9.66 kcal/mol
NCC(=O)O [glycine],reaction rate of CO2 with sorbent,[3],~13.9 kM/s
N=C(N)N/N=C/c1cccc(/C=N/NC(=N)N)n1 [PyBIG],pH of saturated solution,[7],about 10
same,initial weight loss corresponding to CO2 and H2O loss,[8]; 120° C. in open air,35.3%
same,weight loss during accelerated aging (TGA),"[8]; 120° C. in open air for a week, after initial loss",0.5%
same,no decomposition up to (TGA-MS),[4]; regenerated compound,190 °C
same,solubility,physchem,~10 mM
same,log Kreg,[9],3.5
same,"ΔH, PyBIG dissolution",[5]; equation 1,10.2 kcal/mol
same,"ΔH, PyBIG protonation","[5]; equation 2, sum of both protonation enthalpies plus twice water deprotonation",43.6 kJ/mol and 43.6^a kJ/mol
same,"ΔH, PyBIGH2(CO3)(H2O)4 crystallization",[5],-11.2 kcal/mol
same,enthalpy of CO2 'binding',[5]; equations 3-5 combined,-26.24 kcal/mol
same,enthalpy of absorption incl. crystallization step,[5]; equations 3-6 combined,-37.3 kcal/mol
same,pKa,[10],7.6
"O=C([O-])[O-].[Ca+2] [CaCO3, reference compound]",CO2 release on solar heating,[6]; two hours at 160° C.,no CO2 release was observed
O [water],enthalpy of vaporization,[11],9.716 kcal/mol
[Na+].[OH-] [NaOH],flux of CO2 absorbed from air,[3]; 1 M solution,around 30 μmol/m^2/s
"O=C(O)O [HCO3^−, bicarbonate]","ΔH, HCO3^− formation",[1]; equation 4,-12 kcal/mol
